How the values were obtained:
A20 syngeneic cells = assay: Compound 1 and anti-PD-1 in the A20 mouse xenograft model; type: in vivo
Source text: Animals: Female Balb/c Mice, 4-5 weeks old, fed a regular diet
A20 syngeneic cells were collected from flasks and washed once in RPMI 1640 with no additives. […] Animals were implanted with 2×10^5 cells in the right flank. Dosing commenced when tumors were greater than 100 mm^3 (around day 13) and dosing continued for 21 days or until the tumors reached the limit of 2000 mm^3.
Animals started dosing around day 13 when tumors are fully palpable and measured. Dosing continued until tumors begin to show ulceration that requires sacrifice. Tumors were collected before extensive necrosis to run ELISA and Flow analysis.

[1] = system: mouse xenograft tumor models; assay: Antitumor activity in mouse xenograft tumor models; type: in vivo; details: oral or intravenous administration
[2] = system: a variety of cancer cell lines; assay: Antiproliferative activity in vitro; type: cell-based
[3] = Genotoxicity testing using the Ames test
[4] = Oral bioavailability in animal models; type: in vivo
[5] = system: HDACs (HeLa cell nuclear extracts); assay: HDAC activity assay, Biomol Color de Lys system; type: biochemical; details: 25° C. for 1 hour
Experimental: HDAC inhibitory activity was assessed using the Biomol Color de Lys system (AK-500, Biomol, Plymouth Meeting, PA). Briefly, HeLa cell nuclear extracts were used as a source of HDACs. Different concentrations of test compounds were serially diluted in dimethylsulfoxide (DMSO) and added to HeLa cell nuclear extracts in the presence of a colorimetric artificial substrate. Final assay condition contained 50 mM Tris/C1, pH 8.0, 137 mM NaCl, 2.7 mM KCl and 1 mM MgCl2. Reactions were carried in room temperature (25° C.) for 1 hour before addition of developer for termination. Relative enzyme activity was measured in the WALLAC Victor II 1420 microplate reader as fluorescence intensity (excitation: 350-380 nm; emission: 440-460 nm). Data were analyzed using GraphPad Prism (v4.0a) with a sigmoidal dose response curve fitting for IC50 calculation.

tumor tissue = assay: Tumor uptake and pharmacodynamics in xenograft tumor bearing mice; type: in vivo, mouse; details: oral or intravenous dosing
[6] = system: CT26.WT mouse colon carcinoma cells; assay: Compound 1 and anti-PD-1 in the mouse CT26.WT xenograft model; type: in vivo
Experimental: Animals: Female Balb/c Mice, 8 weeks old, fed a high fat diet
CT26.WT cells were collected from flasks and washed once in RPMI 1640 with no additives. […] Mice were grouped once tumors were palpable on day 7 or day 8 and randomized by body weight. Treatment started with antibody and Compound 1 was begun immediately.
Animals were monitored until the dosing commenced and then were measured twice a week during dosing until tumor volume reached protocol limit or ulceration was too severe. Tumor tissue and blood/plasma were collected at the end of the study.

## COc1ccc(-c2nc(N3CCOCC3)c3sc(CN(C)c4ncc(C(=O)NO)cn4)cc3n2)cn1 [Compound 1, N-Hydroxy-2-(((2-(6-methoxypyridin-3-yl)-4-morpholinothieno[3,2-d]pyrimidin-6-yl)methyl)(methyl)amino)pyrimidine-5-carboxamide]
A20 syngeneic cells; A20, female Balb/c mice, Day 13, relative to Vehicle (Cmp 1) + isotype group, Cpd 1 100 mg/kg PO 5+2−, mAb 100 μg BIW
  TGI %* (Day 13): 60%
A20 syngeneic cells; A20 model, Compound 1 100 mg/kg, anti-PD-1 100 ug/mouse
  tumor growth inhibition: significant tumor growth inhibition
[1]
  antitumor activity: substantial antitumor activity
[2]
  antiproliferative activity: potent antiproliferative activity
[3]
  safety profile (genotoxicity, Ames test): favorable safety profile
[4]
  oral bioavailability: significant oral bioavailability
[5]
  IC50: < 100 nM
Tumor tissue
  pharmacodynamic activity in tumor tissue: pharmacodynamic activity in tumor tissue
  uptake by the tumor tissue: significant uptake by the tumor tissue
[6]; CT26.WT model, Compound 1 50 mg/kg, anti-PD-1 100 ug/mouse
  inhibition of tumor growth: only small inhibition of tumor growth
[6]; CT26.WT, female Balb/c mice, Day 15, relative to Vehicle (Cmp 1) group, Cpd 1 50 mg/kg PO 5+2−, mAb 100 μg IP BIW
  TGI %* (Day 15): 3%

— patent US12403142B2, “Combination therapy with a phosphoinositide 3-kinase inhibitor with a zinc binding moiety” (Curis, Inc., priority 2018, dated 2025)
